Experimental findings from patent US12084472B2 (Ardelyx, Inc., priority 2015, dated 2024) are described below.

The target in the assay is T1, human TGR5 (Homo sapiens, UniProt Q8TDU6).
T1 construct: expressed in transfected cells; host or cells: HEK293
T1 sequence (Q8TDU6 1-330): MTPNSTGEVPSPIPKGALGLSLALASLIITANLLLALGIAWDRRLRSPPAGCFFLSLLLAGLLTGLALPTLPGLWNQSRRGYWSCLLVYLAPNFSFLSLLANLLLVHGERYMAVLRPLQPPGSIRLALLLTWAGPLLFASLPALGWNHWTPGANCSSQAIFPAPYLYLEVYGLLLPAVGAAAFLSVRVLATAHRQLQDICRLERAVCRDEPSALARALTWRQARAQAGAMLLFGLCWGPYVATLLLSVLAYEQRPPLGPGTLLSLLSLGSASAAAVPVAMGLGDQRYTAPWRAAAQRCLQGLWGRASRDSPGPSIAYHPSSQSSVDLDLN
Put plainly: Cell-based TGR5 assay (cAMP generation, HTRF). To be noted: HEK293 cells stably transfected with human TGR5; cAMP by HTRF; 30 minutes at 37° C.; read-out: pEC50 Human TGR5 (converted). A digest of the protocol: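 Read-out was HTRF detection of cAMP, converted to concentration via a standard curve and fitted (3-parameter logistic) for pEC50 and maximal response. Agonist stimulation used HEK293 cells stably transfected with human TGR5, incubated 30 min at 37° C in IBMX-containing buffer at 0.05 nM to 10 μM compound.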
A general note: In TR-FRET formats the signal depends on donor and acceptor labels being close together.
On to `CS(=O)(=O)NCCN(CCCSc1ccc(Cl)c(CNC2(c3cnccc3-c3ccccc3OC3CC3)CC2)c1)C(=O)[C@@H](O)[C@@H](O)[C@H](O)[C@@H](O)CO` [Compound I-585, (2S,3S,4R,5S)-N-[3-({4-chloro-3-[({1-[4-(2-cyclopropoxyphenyl)pyridin-3-yl]cyclopropyl}amino)methyl]phenyl}sulfanyl)propyl]-2,3,4,5,6-pentahydroxy-N-(2-methanesulfonamidoethyl) hexanamide], for which the EC50 is less than 100 nM. The result for `CC(=O)NCCN(CCCSc1ccc(Cl)c(CNC2(c3cnccc3-c3ccccc3OC3CC3)CC2)c1)C(=O)[C@@H](O)[C@@H](O)[C@H](O)[C@@H](O)CO` [Compound I-586, (2S,3S,4R,5S)-N-[3-({4-chloro-3-[({1-[4-(2-cyclopropoxyphenyl)pyridin-3-yl]cyclopropyl}amino)methyl]phenyl}sulfanyl)propyl]-N-(2-acetamidoethyl)-2,3,4,5,6-pentahydroxyhexanamide] reads 126 to 1000 nM; that for `CCOC(=O)NCCN(CCCSc1ccc(Cl)c(CNC2(c3cnccc3-c3ccccc3OC3CC3)CC2)c1)C(=O)[C@@H](O)[C@@H](O)[C@H](O)[C@@H](O)CO` [Compound I-587, ethyl N-{2-[(2S,3S,4R,5S)-N-[3-({4-chloro-3-[({1-[4-(2-cyclopropoxyphenyl)pyridin-3-yl]cyclopropyl}amino)methyl]phenyl}sulfanyl)propyl]-2,3,4,5,6-pentahydroxyhexanamido]ethyl}carbamate], 126 to 1000 nM; that for `CS(=O)(=O)NCCCN(CCCSc1ccc(Cl)c(CNC2(c3cnccc3-c3ccccc3OC3CC3)CC2)c1)C(=O)[C@@H](O)[C@@H](O)[C@H](O)[C@@H](O)CO` [Compound I-588, (2S,3S,4R,5S)-N-[3-({4-chloro-3-[({1-[4-(2-cyclopropoxyphenyl)pyridin-3-yl]cyclopropyl}amino)methyl]phenyl}sulfanyl)propyl]-2,3,4,5,6-pentahydroxy-N-(3-methanesulfonamidopropyl) hexanamide], less than 100 nM. The result for `CC(=O)NCCCN(CCCSc1ccc(Cl)c(CNC2(c3cnccc3-c3ccccc3OC3CC3)CC2)c1)C(=O)[C@@H](O)[C@@H](O)[C@H](O)[C@@H](O)CO` [Compound I-589, (2S,3S,4R,5S)-N-[3-({4-chloro-3-[({1-[4-(2-cyclopropoxyphenyl)pyridin-3-yl]cyclopropyl}amino)methyl]phenyl}sulfanyl)propyl]-N-(3-acetamidopropyl)-2,3,4,5,6-pentahydroxyhexanamide] reads 126 to 1000 nM. The result for `CCOC(=O)NCCCN(CCCSc1ccc(Cl)c(CNC2(c3cnccc3-c3ccccc3OC3CC3)CC2)c1)C(=O)[C@@H](O)[C@@H](O)[C@H](O)[C@@H](O)CO` [Compound I-590, ethyl N-{3-[(2S,3S,4R,5S)-N-[3-({4-chloro-3-[({1-[4-(2-cyclopropoxyphenyl)pyridin-3-yl]cyclopropyl}amino)methyl]phenyl}sulfanyl)propyl]-2,3,4,5,6-pentahydroxyhexanamido]propyl} carbamate] reads less than 100 nM. For `CS(=O)(=O)NCCCN(CCCCSc1ccc(Cl)c(CNC2(c3cnccc3-c3ccccc3OC3CC3)CC2)c1)C(=O)[C@@H](O)[C@@H](O)[C@H](O)[C@@H](O)CO` [Compound I-591, (2S,3S,4R,5S)-N-[4-({4-chloro-3-[({1-[4-(2-cyclopropoxyphenyl)pyridin-3-yl]cyclopropyl}amino)methyl]phenyl}sulfanyl)butyl]-2,3,4,5,6-pentahydroxy-N-(3-methanesulfonamidopropyl) hexanamide], the EC50 is 126 to 1000 nM.

Turning to `CS(=O)(=O)NCCCN(CCCSc1ccc(Cl)c(COC2(c3cnccc3-c3ccccc3OC3CC3)CC2)c1)C(=O)[C@@H](O)[C@@H](O)[C@H](O)[C@@H](O)CO` [Compound I-592, (2S,3S,4R,5S)-N-(3-{[4-chloro-3-({1-[4-(2-cyclopropoxyphenyl)pyridin-3-yl]cyclopropoxy}methyl)phenyl]sulfanyl}propyl)-2,3,4,5,6-pentahydroxy-N-(3-methanesulfonamidopropyl) hexanamide], the EC50 is 126 to 1000 nM.

Turning to `CS(=O)(=O)NCCN(CCCSc1ccc(Cl)c(COC2(c3cnccc3-c3ccccc3OC3CC3)CC2)c1)C(=O)[C@@H](O)[C@@H](O)[C@H](O)[C@@H](O)CO` [Compound I-593, (2S,3S,4R,5S)-N-(3-{[4-chloro-3-({1-[4-(2-cyclopropoxyphenyl)pyridin-3-yl]cyclopropoxy}methyl)phenyl]sulfanyl}propyl)-2,3,4,5,6-pentahydroxy-N-(2-methanesulfonamidoethyl) hexanamide], the EC50 is less than 100 nM. The result for `CC(=O)NCCCN(CCCSc1ccc(Cl)c(COC2(c3cnccc3-c3ccccc3OC3CC3)CC2)c1)C(=O)[C@@H](O)[C@@H](O)[C@H](O)[C@@H](O)CO` [Compound I-594, (2S,3S,4R,5S)-N-(3-{[4-chloro-3-({1-[4-(2-cyclopropoxyphenyl)pyridin-3-yl]cyclopropoxy}methyl)phenyl]sulfanyl}propyl)-N-(3-acetamidopropyl)-2,3,4,5,6-pentahydroxyhexanamide] reads less than 100 nM; that for `CC(=O)NCCN(CCCSc1ccc(Cl)c(COC2(c3cnccc3-c3ccccc3OC3CC3)CC2)c1)C(=O)[C@@H](O)[C@@H](O)[C@H](O)[C@@H](O)CO` [Compound I-595, (2S,3S,4R,5S)-N-(3-{[4-chloro-3-({1-[4-(2-cyclopropoxyphenyl)pyridin-3-yl]cyclopropoxy}methyl)phenyl]sulfanyl}propyl)-N-(2-acetamidoethyl)-2,3,4,5,6-pentahydroxyhexanamide], 126 to 1000 nM; that for `CCOC(=O)NCCCN(CCCSc1ccc(Cl)c(COC2(c3cnccc3-c3ccccc3OC3CC3)CC2)c1)C(=O)[C@@H](O)[C@@H](O)[C@H](O)[C@@H](O)CO` [Compound I-596, ethyl N-{3-[(2S,3S,4R,5S)-N-(3-{[4-chloro-3-({1-[4-(2-cyclopropoxyphenyl)pyridin-3-yl]cyclopropoxy}methyl)phenyl]sulfanyl}propyl)-2,3,4,5,6-pentahydroxyhexanamido]propyl}carbamate], 126 to 1000 nM.

Take `CCOC(=O)NCCN(CCCSc1ccc(Cl)c(COC2(c3cnccc3-c3ccccc3OC3CC3)CC2)c1)C(=O)[C@@H](O)[C@@H](O)[C@H](O)[C@@H](O)CO` [Compound I-597, ethyl N-{2-[(2S,3S,4R,5S)-N-(3-{[4-chloro-3-({1-[4-(2-cyclopropoxyphenyl)pyridin-3-yl]cyclopropoxy}methyl)phenyl]sulfanyl}propyl)-2,3,4,5,6-pentahydroxyhexanamido]ethyl}carbamate]: the EC50 is 126 to 1000 nM. The result for `O=C([C@@H](O)[C@@H](O)[C@H](O)[C@@H](O)CO)N(CCCCCSc1ccc(Cl)c(CNC2(c3cnccc3-c3ccccc3OC3CC3)CC2)c1)CCOCCO` [Compound I-598, (2S,3S,4R,5S)-N-[5-({4-chloro-3-[({1-[4-(2-cyclopropoxyphenyl)pyridin-3-yl]cyclopropyl}amino)methyl]phenyl}sulfanyl)pentyl]-2,3,4,5,6-pentahydroxy-N-[2-(2-hydroxyethoxy)ethyl]hexanamide] reads less than 100 nM.
